{"source": "patent US20250325695A1", "about": "“NANOPARTICLE FOR USE IN A PROPHYLAXIS OR IN A TREATMENT OF A CALCIFICATION OF BRUCHS MEMBRANE AND DRUSEN” (Universität Münster, priority 2024, published 2025)", "key": {"[1]": {"system": "Jurkat cells", "assay": "WST-1 cytotoxicity assay, Jurkat", "assay_type": "cell-based, human", "conditions": "24 h incubation, highest concentration of range 0.5 to 250 μg/ml", "description": "(§1) hCMEC/D3 cells were cultivated using RPMI 1640 supplemented with 1% (v/v) non-essential amino acids, 1% ([…] (200 mM), 1% (v/v) gentamicin, 1% (v/v) sodium pyruvate (100 mM), 550 nM hydrocortisone, and 20% (v/v) FBS. Jurkat cells were cultivated using RPMI 1640 supplemented with 1% (v/v) of a mixture of penicillin (100 U/ml) and streptomycin (100 μg/ml), 1% ([…] (200 mM), 1% (v/v) gentamicin, and 10% (v/v) FBS. Both cell lines were stored in T75 cell culture flasks in an incubator at a temperature of 37° C. and 100% humidity at 5% CO2 atmosphere. The cells were split twice a week at a ratio of approximately 1:3. After thawing, all experiments were conducted within a maximum of 20 passages. To evaluate the cytotoxicity of the NP formulations a WST-1 assay (Roche Diagnostics, Mannheim, Germany) was conducted on Jurkat and hCMEC/D3 cell lines. Human macrophages and HUVECs were tested applying a XTT assay (Sigma-Aldrich Chemie GmbH, Munich, Germany). After seeding Jurkat and hCMEC/D3 cells in a 96 well plate at a density of 2×10^4 cells/well (hCMEC/D3 cells suspended in 100 μL, Jurkat cells suspended in 50 μL), they were cultured for 48 h with serum containing medium. […] After 30 min, the absorbance was measured again. […] The blank measurement was subtracted and the absorbances were correlated to the controls. […]"}, "[2]": {"system": "hCMEC/D3 cells", "assay": "WST-1 cytotoxicity assay, hCMEC/D3", "assay_type": "cell-based, human", "conditions": "24 h incubation, highest concentration of range 0.5 to 250 μg/ml, related to pure medium", "description": "as §1"}}, "data": [{"smiles": "O=C(O)CN(CCN(CC(=O)O)CC(=O)O)CCN(CC(=O)O)CC(=O)O", "note": "[DTPA, diethylenetriaminepentaacetic acid]", "values": [{"measurement": "cell viability, Jurkat cells", "setting": "[1]", "value": "73.0±6.6", "unit": "%"}, {"measurement": "cell viability, hCMEC/D3 cells", "setting": "[2]", "value": "78.4±6.9", "unit": "%"}]}]}
